Laboratory results as given in the supplement of paper PMC11451515.

How the values were obtained:
Details in all cases: 48 h
NOMO1 [1] = assay: AUC of viability dose-response curve (% viability x log10 dose units); higher = less sensitive
Outline: (§1)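 In 1536-well plates, leukemia cells adapted to each medium (500 or 1000 cells/well) were exposed for 48 h at 37°C to library compounds in DMSO across 11 threefold doses, 47 μM down to 0.79 nM. Viability was read by CellTiter-Glo One luminescence and normalised per plate to DMSO and cell-free wells. A four-parameter log-logistic fit over log10 doses was integrated by trapezoidal rule. This yielded the area under the curve, with over-full-viability curves scaled and quality-control failures dropped.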

P12-Ichikawa [2] = assay: as above
Outline: as §1

SEM cells [3] = assay: as above
Outline: as §1

NOMO1 [4] = assay: cell viability relative to DMSO control; higher = less cytotoxic
Outline: (§2)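 Before seeding, each leukemia line was adapted for at least four passages in each medium. NOMO1 or SEM cells (500 cells/well) and P12-Ichikawa cells (1000 cells/well) went into 1536-well plates at 5 μl, then received library compounds in DMSO by pin dosing across 11 threefold concentrations, 47 μM to 0.79 nM. Readout was CellTiter-Glo One luminescence after 48 h at 37°C, and viability is given as a per-plate percentage of DMSO wells, with cell-free wells as background.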

P12-Ichikawa [5] = assay: as above
Outline: as §2

SEM cells [6] = assay: as above
Outline: as §2

[7] = RPMI 5 mM glucose + 10% dialyzed FBS
[8] = HPLM + 10% dialyzed FBS, 0.000781 µM
[9] = HPLM + 10% dialyzed FBS, 0.00234 µM
[10] = HPLM + 10% dialyzed FBS, 0.00702 µM
[11] = HPLM + 10% dialyzed FBS, 0.0211 µM
[12] = HPLM + 10% dialyzed FBS, 0.0632 µM
[13] = HPLM + 10% dialyzed FBS, 0.19 µM
[14] = HPLM + 10% dialyzed FBS, 0.569 µM
[15] = HPLM + 10% dialyzed FBS, 1.71 µM
[16] = HPLM + 10% dialyzed FBS, 5.12 µM
[17] = HPLM + 10% dialyzed FBS, 15.4 µM
[18] = HPLM + 10% dialyzed FBS, 46.1 µM
[19] = RPMI 5 mM glucose + 10% FBS, 0.000781 µM
[20] = RPMI 5 mM glucose + 10% FBS, 0.00234 µM
[21] = RPMI 5 mM glucose + 10% FBS, 0.00702 µM
[22] = RPMI 5 mM glucose + 10% FBS, 0.0211 µM
[23] = RPMI 5 mM glucose + 10% FBS, 0.0632 µM
[24] = RPMI 5 mM glucose + 10% FBS, 0.19 µM
[25] = RPMI 5 mM glucose + 10% FBS, 0.569 µM
[26] = RPMI 5 mM glucose + 10% FBS, 1.71 µM
[27] = RPMI 5 mM glucose + 10% FBS, 5.12 µM
[28] = RPMI 5 mM glucose + 10% FBS, 15.4 µM
[29] = RPMI 5 mM glucose + 10% FBS, 46.1 µM
[30] = RPMI 5 mM glucose + 10% dialyzed FBS, 0.000781 µM
[31] = RPMI 5 mM glucose + 10% dialyzed FBS, 0.00234 µM
[32] = RPMI 5 mM glucose + 10% dialyzed FBS, 0.00702 µM
[33] = RPMI 5 mM glucose + 10% dialyzed FBS, 0.0211 µM
[34] = RPMI 5 mM glucose + 10% dialyzed FBS, 0.0632 µM
[35] = RPMI 5 mM glucose + 10% dialyzed FBS, 0.19 µM
[36] = RPMI 5 mM glucose + 10% dialyzed FBS, 0.569 µM
[37] = RPMI 5 mM glucose + 10% dialyzed FBS, 1.71 µM
[38] = RPMI 5 mM glucose + 10% dialyzed FBS, 5.12 µM
[39] = RPMI 5 mM glucose + 10% dialyzed FBS, 15.4 µM
[40] = RPMI 5 mM glucose + 10% dialyzed FBS, 46.1 µM

## C[C@H]1[C@H](OC(=O)CCC(=O)O)O[C@@H]2O[C@@]3(C)CC[C@H]4[C@H](C)CC[C@@H]1[C@@]24OO3
NOMO1 [1]; HPLM + 10% dialyzed FBS
  AUC of viability dose-response curve: 350
NOMO1 [1]; RPMI 5 mM glucose + 10% FBS
  AUC of viability dose-response curve: 342
NOMO1 [1]; [7]
  AUC of viability dose-response curve: 335
P12-Ichikawa [2]; HPLM + 10% dialyzed FBS
  AUC of viability dose-response curve: 372
P12-Ichikawa [2]; RPMI 5 mM glucose + 10% FBS
  AUC of viability dose-response curve: 360
P12-Ichikawa [2]; [7]
  AUC of viability dose-response curve: 351
SEM cells [3]; HPLM + 10% dialyzed FBS
  AUC of viability dose-response curve: 393
SEM cells [3]; RPMI 5 mM glucose + 10% FBS
  AUC of viability dose-response curve: 371
SEM cells [3]; [7]
  AUC of viability dose-response curve: 378

## c1cc(CN2CCCNCCNCCCNCC2)ccc1CN1CCCNCCNCCCNCC1
NOMO1 [4]; [8]
  cell viability: 79.6%
NOMO1 [4]; [9]
  cell viability: 109%
NOMO1 [4]; [10]
  cell viability: 100%
NOMO1 [4]; [11]
  cell viability: 30.5%
NOMO1 [4]; [12]
  cell viability: 117%
NOMO1 [4]; [13]
  cell viability: 108%
NOMO1 [4]; [14]
  cell viability: 102%
NOMO1 [4]; [15]
  cell viability: 109%
NOMO1 [4]; [16]
  cell viability: 109%
NOMO1 [4]; [17]
  cell viability: 106%
NOMO1 [4]; [18]
  cell viability: 104%
NOMO1 [4]; [19]
  cell viability: 88.4%
NOMO1 [4]; [20]
  cell viability: 85.8%
NOMO1 [4]; [21]
  cell viability: 97.8%
NOMO1 [4]; [22]
  cell viability: 18.6%
NOMO1 [4]; [23]
  cell viability: 89.2%
NOMO1 [4]; [24]
  cell viability: 105%
NOMO1 [4]; [25]
  cell viability: 86.7%
NOMO1 [4]; [26]
  cell viability: 88.4%
NOMO1 [4]; [27]
  cell viability: 85.4%
NOMO1 [4]; [28]
  cell viability: 101%
NOMO1 [4]; [29]
  cell viability: 92.5%
NOMO1 [4]; [30]
  cell viability: 89.2%
NOMO1 [4]; [31]
  cell viability: 78.2%
NOMO1 [4]; [32]
  cell viability: 83.5%
NOMO1 [4]; [33]
  cell viability: 33%
NOMO1 [4]; [34]
  cell viability: 98.3%
NOMO1 [4]; [35]
  cell viability: 93.9%
NOMO1 [4]; [36]
  cell viability: 102%
NOMO1 [4]; [37]
  cell viability: 92.7%
NOMO1 [4]; [38]
  cell viability: 91.3%
NOMO1 [4]; [39]
  cell viability: 91.4%
NOMO1 [4]; [40]
  cell viability: 93.4%
P12-Ichikawa [5]; [8]
  cell viability: 84%
P12-Ichikawa [5]; [9]
  cell viability: 90.4%
P12-Ichikawa [5]; [10]
  cell viability: 96.5%
P12-Ichikawa [5]; [11]
  cell viability: 10.2%
P12-Ichikawa [5]; [12]
  cell viability: 101%
P12-Ichikawa [5]; [13]
  cell viability: 104%
P12-Ichikawa [5]; [14]
  cell viability: 109%
P12-Ichikawa [5]; [15]
  cell viability: 102%
P12-Ichikawa [5]; [16]
  cell viability: 102%
P12-Ichikawa [5]; [17]
  cell viability: 116%
P12-Ichikawa [5]; [18]
  cell viability: 117%
P12-Ichikawa [5]; [19]
  cell viability: 80.6%
P12-Ichikawa [5]; [20]
  cell viability: 90.8%
P12-Ichikawa [5]; [21]
  cell viability: 95.2%
P12-Ichikawa [5]; [22]
  cell viability: 12.9%
P12-Ichikawa [5]; [23]
  cell viability: 101%
P12-Ichikawa [5]; [24]
  cell viability: 97.6%
P12-Ichikawa [5]; [25]
  cell viability: 101%
P12-Ichikawa [5]; [26]
  cell viability: 103%
P12-Ichikawa [5]; [27]
  cell viability: 99%
P12-Ichikawa [5]; [28]
  cell viability: 111%
P12-Ichikawa [5]; [29]
  cell viability: 106%
P12-Ichikawa [5]; [30]
  cell viability: 86.3%
P12-Ichikawa [5]; [31]
  cell viability: 93.9%
P12-Ichikawa [5]; [32]
  cell viability: 92.9%
P12-Ichikawa [5]; [33]
  cell viability: 24.9%
P12-Ichikawa [5]; [34]
  cell viability: 94.9%
P12-Ichikawa [5]; [35]
  cell viability: 99.6%
P12-Ichikawa [5]; [36]
  cell viability: 101%
P12-Ichikawa [5]; [37]
  cell viability: 101%
P12-Ichikawa [5]; [38]
  cell viability: 103%
P12-Ichikawa [5]; [39]
  cell viability: 96.5%
P12-Ichikawa [5]; [40]
  cell viability: 103%
SEM cells [6]; [8]
  cell viability: 83.6%
SEM cells [6]; [9]
  cell viability: 85.7%
SEM cells [6]; [10]
  cell viability: 86.8%
SEM cells [6]; [11]
  cell viability: 20.1%
SEM cells [6]; [12]
  cell viability: 94.3%
SEM cells [6]; [13]
  cell viability: 101%
SEM cells [6]; [14]
  cell viability: 89.8%
SEM cells [6]; [15]
  cell viability: 96.9%
SEM cells [6]; [16]
  cell viability: 106%
SEM cells [6]; [17]
  cell viability: 116%
SEM cells [6]; [18]
  cell viability: 110%
SEM cells [6]; [19]
  cell viability: 70.8%
SEM cells [6]; [20]
  cell viability: 93.3%
SEM cells [6]; [21]
  cell viability: 83.8%
SEM cells [6]; [22]
  cell viability: 13.6%
SEM cells [6]; [23]
  cell viability: 85.7%
SEM cells [6]; [24]
  cell viability: 92.9%
SEM cells [6]; [25]
  cell viability: 87.1%
SEM cells [6]; [26]
  cell viability: 90.8%
SEM cells [6]; [27]
  cell viability: 94.1%
SEM cells [6]; [28]
  cell viability: 91.5%
SEM cells [6]; [29]
  cell viability: 89%
SEM cells [6]; [30]
  cell viability: 94.1%
SEM cells [6]; [31]
  cell viability: 84.4%
SEM cells [6]; [32]
  cell viability: 94.2%
SEM cells [6]; [33]
  cell viability: 20%
SEM cells [6]; [34]
  cell viability: 117%
SEM cells [6]; [35]
  cell viability: 118%
SEM cells [6]; [36]
  cell viability: 106%
SEM cells [6]; [37]
  cell viability: 115%
SEM cells [6]; [38]
  cell viability: 102%
SEM cells [6]; [39]
  cell viability: 125%
SEM cells [6]; [40]
  cell viability: 119%
SEM cells [3]; HPLM + 10% dialyzed FBS
  AUC of viability dose-response curve: 390
SEM cells [3]; RPMI 5 mM glucose + 10% FBS
  AUC of viability dose-response curve: 387
SEM cells [3]; [7]
  AUC of viability dose-response curve: 416
